The NIST ThermoML archive (doi:10.1016/j.jct.2015.12.029)

Test: mn = molality of the nth substance listed, in mol/kg
Conditions: 100 kPa, Liquid; for molar conductivity: Alternating current cell with electrodes; for mass density: Vibrating tube method

CCCCn1cc[n+](C)c1.F[B-](F)(F)F [1-butyl-3-methylimidazolium tetrafluoroborate] + CCCCO
Conditions	mass density [kg/m3]	molar conductivity [S·m2/mol]
283.15 K, m1 = 7.252e-05	–	0.00118
283.15 K, m1 = 0.0001049	–	0.00114
283.15 K, m1 = 0.0001948	–	0.00103
283.15 K, m1 = 0.0002951	–	0.000958
283.15 K, m1 = 0.0004065	–	0.000896
283.15 K, m1 = 0.000564	–	0.000826
283.15 K, m1 = 0.000759	–	0.000763
283.15 K, m1 = 0.0009843	–	0.000711
283.15 K, m1 = 0.001432	–	0.000635
283.15 K, m1 = 0.001963	–	0.000573
283.15 K, m1 = 0.003008	–	0.000498
283.15 K, m1 = 0.009007	817.699	–
288.15 K, m1 = 7.252e-05	–	0.00135
288.15 K, m1 = 0.0001049	–	0.0013
288.15 K, m1 = 0.0001948	–	0.00118
288.15 K, m1 = 0.0002951	–	0.00109
288.15 K, m1 = 0.0004065	–	0.00102
288.15 K, m1 = 0.000564	–	0.000939
288.15 K, m1 = 0.000759	–	0.000869
288.15 K, m1 = 0.0009843	–	0.000808
288.15 K, m1 = 0.001432	–	0.000719
288.15 K, m1 = 0.001963	–	0.000648
288.15 K, m1 = 0.003008	–	0.000562
288.15 K, m1 = 0.009007	813.937	–
293.15 K, m1 = 7.252e-05	–	0.00154
293.15 K, m1 = 0.0001049	–	0.00148
293.15 K, m1 = 0.0001948	–	0.00135
293.15 K, m1 = 0.0002951	–	0.00125
293.15 K, m1 = 0.0004065	–	0.00116
293.15 K, m1 = 0.000564	–	0.00107
293.15 K, m1 = 0.000759	–	0.000986
293.15 K, m1 = 0.0009843	–	0.000917
293.15 K, m1 = 0.001432	–	0.000816
293.15 K, m1 = 0.001963	–	0.000736
293.15 K, m1 = 0.003008	–	0.000639
293.15 K, m1 = 0.009007	810.147	–
298.15 K, m1 = 7.252e-05	–	0.00177
298.15 K, m1 = 0.0001049	–	0.00169
298.15 K, m1 = 0.0001948	–	0.00154
298.15 K, m1 = 0.0002951	–	0.00142
298.15 K, m1 = 0.0004065	–	0.00132
298.15 K, m1 = 0.000564	–	0.00121
298.15 K, m1 = 0.000759	–	0.00112
298.15 K, m1 = 0.0009843	–	0.00104
298.15 K, m1 = 0.001432	–	0.000925
298.15 K, m1 = 0.001963	–	0.000834
298.15 K, m1 = 0.003008	–	0.00072
298.15 K, m1 = 0.009007	806.337	–
303.15 K, m1 = 7.252e-05	–	0.00199
303.15 K, m1 = 0.0001049	–	0.00191
303.15 K, m1 = 0.0001948	–	0.00173
303.15 K, m1 = 0.0002951	–	0.00158
303.15 K, m1 = 0.0004065	–	0.00147
303.15 K, m1 = 0.000564	–	0.00135
303.15 K, m1 = 0.000759	–	0.00125
303.15 K, m1 = 0.0009843	–	0.00116
303.15 K, m1 = 0.001432	–	0.00103
303.15 K, m1 = 0.001963	–	0.00093
303.15 K, m1 = 0.003008	–	0.000807
303.15 K, m1 = 0.009007	802.5	–
308.15 K, m1 = 7.252e-05	–	0.00224
308.15 K, m1 = 0.0001049	–	0.00214
308.15 K, m1 = 0.0001948	–	0.00193
308.15 K, m1 = 0.0002951	–	0.00177
308.15 K, m1 = 0.0004065	–	0.00164
308.15 K, m1 = 0.000564	–	0.00151
308.15 K, m1 = 0.000759	–	0.00139
308.15 K, m1 = 0.0009843	–	0.00129
308.15 K, m1 = 0.001432	–	0.00114
308.15 K, m1 = 0.001963	–	0.00103
308.15 K, m1 = 0.003008	–	0.000896
308.15 K, m1 = 0.009007	798.633	–
313.15 K, m1 = 7.252e-05	–	0.0025
313.15 K, m1 = 0.0001049	–	0.00238
313.15 K, m1 = 0.0001948	–	0.00214
313.15 K, m1 = 0.0002951	–	0.00197
313.15 K, m1 = 0.0004065	–	0.00182
313.15 K, m1 = 0.000564	–	0.00168
313.15 K, m1 = 0.000759	–	0.00154
313.15 K, m1 = 0.0009843	–	0.00143
313.15 K, m1 = 0.001432	–	0.00126
313.15 K, m1 = 0.001963	–	0.00114
313.15 K, m1 = 0.003008	–	0.00099
313.15 K, m1 = 0.009007	794.73	–
318.15 K, m1 = 7.252e-05	–	0.00278
318.15 K, m1 = 0.0001049	–	0.00264
318.15 K, m1 = 0.0001948	–	0.00237
318.15 K, m1 = 0.0002951	–	0.00217
318.15 K, m1 = 0.0004065	–	0.00201
318.15 K, m1 = 0.000564	–	0.00184
318.15 K, m1 = 0.000759	–	0.00169
318.15 K, m1 = 0.0009843	–	0.00156
318.15 K, m1 = 0.001432	–	0.00138
318.15 K, m1 = 0.001963	–	0.00125
318.15 K, m1 = 0.003008	–	0.00108
318.15 K, m1 = 0.009007	790.785	–

CCn1cc[n+](C)c1.F[B-](F)(F)F [1-ethyl-3-methylimidazolium tetrafluoroborate] + CCCCO
Conditions	mass density [kg/m3]	molar conductivity [S·m2/mol]
283.15 K, m1 = 3.974e-05	–	0.00127
283.15 K, m1 = 6.936e-05	–	0.001204
283.15 K, m1 = 0.0001047	–	0.00115
283.15 K, m1 = 0.0001865	–	0.00106
283.15 K, m1 = 0.0002945	–	0.000977
283.15 K, m1 = 0.0004005	–	0.000913
283.15 K, m1 = 0.000688	–	0.000802
283.15 K, m1 = 0.0009724	–	0.000729
283.15 K, m1 = 0.001464	–	0.000642
283.15 K, m1 = 0.001942	–	0.000597
283.15 K, m1 = 0.002839	–	0.000519
283.15 K, m1 = 0.009397	817.716	–
288.15 K, m1 = 3.974e-05	–	0.00144
288.15 K, m1 = 6.936e-05	–	0.00138
288.15 K, m1 = 0.0001047	–	0.00132
288.15 K, m1 = 0.0001865	–	0.00121
288.15 K, m1 = 0.0002945	–	0.00111
288.15 K, m1 = 0.0004005	–	0.00104
288.15 K, m1 = 0.000688	–	0.000915
288.15 K, m1 = 0.0009724	–	0.00083
288.15 K, m1 = 0.001464	–	0.000733
288.15 K, m1 = 0.001942	–	0.000668
288.15 K, m1 = 0.002839	–	0.000592
288.15 K, m1 = 0.009397	813.954	–
293.15 K, m1 = 3.974e-05	–	0.00165
293.15 K, m1 = 6.936e-05	–	0.00158
293.15 K, m1 = 0.0001047	–	0.001505
293.15 K, m1 = 0.0001865	–	0.00138
293.15 K, m1 = 0.0002945	–	0.00127
293.15 K, m1 = 0.0004005	–	0.00119
293.15 K, m1 = 0.000688	–	0.00104
293.15 K, m1 = 0.0009724	–	0.000943
293.15 K, m1 = 0.001464	–	0.000833
293.15 K, m1 = 0.001942	–	0.000762
293.15 K, m1 = 0.002839	–	0.000671
293.15 K, m1 = 0.009397	810.164	–
298.15 K, m1 = 3.974e-05	–	0.00188
298.15 K, m1 = 6.936e-05	–	0.0018
298.15 K, m1 = 0.0001047	–	0.00172
298.15 K, m1 = 0.0001865	–	0.00157
298.15 K, m1 = 0.0002945	–	0.00144
298.15 K, m1 = 0.0004005	–	0.00134
298.15 K, m1 = 0.000688	–	0.00117
298.15 K, m1 = 0.0009724	–	0.00106
298.15 K, m1 = 0.001464	–	0.000942
298.15 K, m1 = 0.001942	–	0.000859
298.15 K, m1 = 0.002839	–	0.000759
298.15 K, m1 = 0.009397	806.357	–
303.15 K, m1 = 3.974e-05	–	0.00213
303.15 K, m1 = 6.936e-05	–	0.00203
303.15 K, m1 = 0.0001047	–	0.00193
303.15 K, m1 = 0.0001865	–	0.00177
303.15 K, m1 = 0.0002945	–	0.00162
303.15 K, m1 = 0.0004005	–	0.00151
303.15 K, m1 = 0.000688	–	0.00131
303.15 K, m1 = 0.0009724	–	0.00119
303.15 K, m1 = 0.001464	–	0.00106
303.15 K, m1 = 0.001942	–	0.000961
303.15 K, m1 = 0.002839	–	0.000848
303.15 K, m1 = 0.009397	802.519	–
308.15 K, m1 = 3.974e-05	–	0.002402
308.15 K, m1 = 6.936e-05	–	0.00228
308.15 K, m1 = 0.0001047	–	0.00217
308.15 K, m1 = 0.0001865	–	0.00198
308.15 K, m1 = 0.0002945	–	0.00181
308.15 K, m1 = 0.0004005	–	0.00169
308.15 K, m1 = 0.000688	–	0.00146
308.15 K, m1 = 0.0009724	–	0.00133
308.15 K, m1 = 0.001464	–	0.00117
308.15 K, m1 = 0.001942	–	0.00107
308.15 K, m1 = 0.002839	–	0.000941
308.15 K, m1 = 0.009397	798.653	–
313.15 K, m1 = 3.974e-05	–	0.00268
313.15 K, m1 = 6.936e-05	–	0.00255
313.15 K, m1 = 0.0001047	–	0.00242
313.15 K, m1 = 0.0001865	–	0.0022
313.15 K, m1 = 0.0002945	–	0.00201
313.15 K, m1 = 0.0004005	–	0.00187
313.15 K, m1 = 0.000688	–	0.00162
313.15 K, m1 = 0.0009724	–	0.00147
313.15 K, m1 = 0.001464	–	0.00129
313.15 K, m1 = 0.001942	–	0.00118
313.15 K, m1 = 0.002839	–	0.00103
313.15 K, m1 = 0.009397	794.75	–
318.15 K, m1 = 3.974e-05	–	0.003
318.15 K, m1 = 6.936e-05	–	0.00284
318.15 K, m1 = 0.0001047	–	0.00269
318.15 K, m1 = 0.0001865	–	0.00244
318.15 K, m1 = 0.0002945	–	0.00222
318.15 K, m1 = 0.0004005	–	0.00206
318.15 K, m1 = 0.000688	–	0.00178
318.15 K, m1 = 0.0009724	–	0.00161
318.15 K, m1 = 0.001464	–	0.00142
318.15 K, m1 = 0.001942	–	0.00129
318.15 K, m1 = 0.002839	–	0.00114
318.15 K, m1 = 0.009397	790.804	–
